Where two headings read alike, the source gives them in different places.
Assays:
[1] = system: H929 human cancer cell lines; assay: Cellular viability / proliferation (Cell TiterGlo, 72 h); assay type: cell-based
Procedure, shortened: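 Cells were seeded at 1,000 cells/well in medium with 10% FBS and dosed 24 h later with a 2-fold serial dilution of compound (top concentration 50 μM, final DMSO <1%).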

Mcl-1 = Mcl-1 (Homo sapiens (Human), UniProt Q07820); assay: TR-FRET binding assay, FITC-Bak peptide and MBP-tagged Mcl-1; conditions: read-out: Ki for Inhibition of Mcl-1 by TR-FRET assay
Chain of Mcl-1 (Q07820 172-327): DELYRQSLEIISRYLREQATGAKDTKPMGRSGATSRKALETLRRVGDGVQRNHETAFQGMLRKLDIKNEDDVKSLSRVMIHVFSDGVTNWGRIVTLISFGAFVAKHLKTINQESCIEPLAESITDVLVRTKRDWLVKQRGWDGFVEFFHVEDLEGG
Protocol: Compounds are diluted in DMSO in a 16-point, semilog serial dilution scheme. […] The plate was mixed and incubated for 3 hours at room temperature. […] TR-FRET signal is plotted and IC50 and Ki values are calculated in the same manner as the fluorescence polarization anisotropy based competition assays.

[2] = Homo sapiens, NCI-H929, 72 h, read-out: GI50 on cellular proliferation of H929 human cancer cell lines, H929 cells, 72 h, Cell TiterGlo, 10% FBS

SMILES | GI50 [1, 2] [nM] | Ki (Mcl-1) [nM] | GI50 ([1]; read-out: GI50 on cellular proliferation of H929 human cancer cell lines, H929 cells, 72 h, Cell TiterGlo, 10% FBS) [nM]
COCc1nc(-c2ccc3c(c2)c(N2C[C@@H](C)n4c(c(CCCOc5cc(C)c(Cl)c(C)c5)c5ccc(Cl)c(-c6c(C)nn(C)c6C)c54)C2=O)cn3C)nn1C [Example 674, (R)-7-Chloro-10-(3-(4-chloro-3,5-dimethylphenoxy)propyl)-2-(5-(5-(methoxymethyl)-1-methyl-1H-1,2,4-triazol-3-yl)-1-methyl-1H-indol-3-yl)-4-methyl-6-(1,3,5-trimethyl-1H-pyrazol-4-yl)-3,4-dihydropyrazino[1,2-a]indol-1(2H)-one] | 210 | 2.1 | –
Cc1cc(OCCCc2c3n(c4c(-c5c(C)nn(C)c5C)c(Cl)ccc24)[C@H](C)CN(c2cc(COCC4COC4)cc4cc(C(=O)O)n(C)c24)C3=O)cc(C)c1Cl [Example 692, (R)-7-(7-chloro-10-(3-(4-chloro-3,5-dimethylphenoxy)propyl)-4-methyl-1-oxo-6-(1,3,5-trimethyl-1H-pyrazol-4-yl)-3,4-dihydropyrazino[1,2-a]indol-2(1H)-yl)-1-methyl-5-((oxetan-3-ylmethoxy)methyl)-1H-indole-2-carboxylic acid] | 390 | < 0.2 | –
Cc1cc(OCCCc2c3n(c4c(-c5c(C)nn(C)c5C)c(Cl)ccc24)[C@H](C)CN(c2cc(CN4CCN(C)C(=O)C4)cc4cc(C(=O)O)n(C)c24)C3=O)cc(C)c1Cl [Example 628, (R)-7-(7-chloro-10-(3-(4-chloro-3,5-dimethylphenoxy)propyl)-4-methyl-1-oxo-6-(1,3,5-trimethyl-1H-pyrazol-4-yl)-3,4-dihydropyrazino[1,2-a]indol-2(1H)-yl)-1-methyl-5-((4-methyl-3-oxopiperazin-1-yl)methyl)-1H-indole-2-carboxylic acid] | 440 | < 0.2 | –
Cc1cc(OCCCc2c3n(c4c(-c5c(C)nn(C)c5C)c(Cl)ccc24)[C@H](C)CN(c2cn(CCN4CCN(C)CC4)c4ccc(-c5ncccn5)cc24)C3=O)cc(C)c1Cl [Example 568, (R)-7-Chloro-10-(3-(4-chloro-3,5-dimethylphenoxy)propyl)-4-methyl-2-(1-(2-(4-methylpiperazin-1-yl)ethyl)-5-(pyrimidin-2-yl)-1H-indol-3-yl)-6-(1,3,5-trimethyl-1H-pyrazol-4-yl)-3,4-dihydropyrazino[1,2-a]indol-1(2H)-one] | 280 | 1.8 | –
Cc1cc(OCCCc2c3n(c4c(-c5c(C)nn(C)c5C)c(Cl)ccc24)[C@H](C)CN(c2cc(OC4CC[N+](C)(C)C4)cc4cc(C(=O)O)n(C)c24)C3=O)cc(C)c1Cl (stereo partly drawn) [Example 513, 3-((2-Carboxy-7-((R)-7-chloro-10-(3-(4-chloro-3,5-dimethylphenoxy)propyl)-4-methyl-1-oxo-6-(1,3,5-trimethyl-1H-pyrazol-4-yl)-3,4-dihydropyrazino[1,2-a]indol-2(1H)-yl)-1-methyl-1H-indol-5-yl)oxy)-1,1-dimethylpyrrolidin-1-ium 2,2,2-trifluoroacetate] | 5300 | < 0.2 | –
Cc1cc(OCCCc2c3n(c4c(-c5c(C)nc(CN6CCOCC6)nc5C)c(Cl)ccc24)[C@H](C)CN(c2cn(C)c4ccc(-c5ncn(C)n5)cc24)C3=O)cc(C)c1Cl [Example 503, (R)-7-chloro-10-(3-(4-chloro-3,5-dimethylphenoxy)propyl)-6-(4,6-dimethyl-2-(morpholinomethyl)pyrimidin-5-yl)-4-methyl-2-(1-methyl-5-(1-methyl-1H-1,2,4-triazol-3-yl)-1H-indol-3-yl)-3,4-dihydropyrazino[1,2-a]indol-1(2H)-one] | < 200 | 3.7 | –
Cc1cc(OCCCc2c3n(c4c(-c5c(C)ncnc5C)c(Cl)ccc24)[C@H](C)CN(c2cn(C)c4cnc(C(=O)O)cc24)C3=O)cc(C)c1Cl [Example 640, (R)-3-(7-chloro-10-(3-(4-chloro-3,5-dimethylphenoxy)propyl)-6-(4,6-dimethylpyrimidin-5-yl)-4-methyl-1-oxo-3,4-dihydropyrazino[1,2-a]indol-2(1H)-yl)-1-methyl-1H-pyrrolo[2,3-c]pyridine-5-carboxylic acid] | 8100 | < 0.2 | –
Cc1cc(OCCCc2c3n(c4c(-c5c(C)nn(C)c5C)c(Cl)ccc24)[C@H](C)CN(c2cc(OC(F)(F)F)cc4cc(C(=O)O)n(C)c24)C3=O)cc(C)c1Cl [Example 479, (R)-7-(7-chloro-10-(3-(4-chloro-3,5-dimethylphenoxy)propyl)-4-methyl-1-oxo-6-(1,3,5-trimethyl-1H-pyrazol-4-yl)-3,4-dihydropyrazino[1,2-a]indol-2(1H)-yl)-1-methyl-5-(trifluoromethoxy)-1H-indole-2-carboxylic acid] | 1500 | 0.95 | –
Cc1cc(OCCCc2c3n(c4c(-c5c(C)nn(C)c5C)c(Cl)ccc24)[C@H](C)CN(c2cn(C)c4ccc(-c5nc(C)n(C)n5)cc24)C3=O)cc(C)c1Cl [Example 643, (R)-7-Chloro-10-(3-(4-chloro-3,5-dimethylphenoxy)propyl)-2-(5-(1,5-dimethyl-1H-1,2,4-triazol-3-yl)-1-methyl-1H-indol-3-yl)-4-methyl-6-(1,3,5-trimethyl-1H-pyrazol-4-yl)-3,4-dihydropyrazino[1,2-a]indol-1(2H)-one] | 340 | 1.3 | –
Cc1cc(OCCCc2c3n(c4c(-c5c(C)nn(C)c5C)c(Cl)ccc24)[C@H](C)CN(c2cn(C)c4ccc(-n5ncnn5)cc24)C3=O)cc(C)c1Cl [Example 689, (R)-7-Chloro-10-(3-(4-chloro-3,5-dimethylphenoxy)propyl)-4-methyl-2-(1-methyl-5-(2H-tetrazol-2-yl)-1H-indol-3-yl)-6-(1,3,5-trimethyl-1H-pyrazol-4-yl)-3,4-dihydropyrazino[1,2-a]indol-1(2H)-one] | 1700 | 2.1 | –
Cc1cccc(Cn2cc(C(=O)O)c3cccc(N4C[C@@H](C)n5c(c(CCCOc6cc(C)c(Cl)c(C)c6)c6ccc(Cl)c(-c7c(C)nn(C)c7C)c65)C4=O)c32)n1 (single isomer, unassigned) [Example 491] | 280 | < 0.2 | –
Cc1cc(OCCCc2c3n(c4c(-c5c(C)nn(C)c5C)c(Cl)ccc24)[C@H](C)CN(c2cn(CCN4CCN(C)C(=O)C4)c4ccc(-c5ncn(C)n5)cc24)C3=O)cc(C)c1Cl [Example 603, (R)-7-Chloro-10-(3-(4-chloro-3,5-dimethylphenoxy)propyl)-4-methyl-2-(5-(1-methyl-1H-1,2,4-triazol-3-yl)-1-(2-(4-methyl-3-oxopiperazin-1-yl)ethyl)-1H-indol-3-yl)-6-(1,3,5-trimethyl-1H-pyrazol-4-yl)-3,4-dihydropyrazino[1,2-a]indol-1(2H)-one] | < 200 | 0.89 | –
Cc1cc(OCCCc2c3n(c4c(-c5c(C)nn(C)c5C)c(Cl)ccc24)[C@H](C)CN(c2cn(C[C@H]4CCCN4C)c4ccc(C(=O)O)cc24)C3=O)cc(C)c1Cl [Example 694, 3-((R)-7-chloro-10-(3-(4-chloro-3,5-dimethylphenoxy)propyl)-4-methyl-1-oxo-6-(1,3,5-trimethyl-1H-pyrazol-4-yl)-3,4-dihydropyrazino[1,2-a]indol-2(1H)-yl)-1-(((R)-1-methylpyrrolidin-2-yl)methyl)-1H-indole-5-carboxylic acid] | 320 | < 0.2 | –
Cc1cc(OCCCc2c3n(c4c(-c5c(C)nn(C)c5C)c(Cl)ccc24)[C@H](C)CN(c2cn(Cc4cscn4)c4ccc(C(=O)O)cc24)C3=O)cc(C)c1Cl [Example 532, (R)-3-(7-Chloro-10-(3-(4-chloro-3,5-dimethylphenoxy)propyl)-4-methyl-1-oxo-6-(1,3,5-trimethyl-1H-pyrazol-4-yl)-3,4-dihydropyrazino[1,2-a]indol-2(1H)-yl)-1-(thiazol-4-ylmethyl)-1H-indole-5-carboxylic acid] | 390 | 0.2 | –
COCCn1cc(C(=O)O)c2cc(OC)cc(N3C[C@@H](C)n4c(c(CCCOc5cc(C)c(Cl)c(C)c5)c5ccc(Cl)c(-c6c(C)nn(C)c6C)c54)C3=O)c21 (single isomer, unassigned) [Example 672] | – | 0.43 | 840
C=Cc1ccnc(Cn2c(C(=O)O)cc3cc(C)cc(N4C[C@@H](C)n5c(c(CCCOc6cc(C)c(Cl)c(C)c6)c6ccc(Cl)c(-c7c(C)nn(C)c7C)c65)C4=O)c32)c1 [Example 514, (R)-7-(7-chloro-10-(3-(4-chloro-3,5-dimethylphenoxy)propyl)-4-methyl-1-oxo-6-(1,3,5-trimethyl-1H-pyrazol-4-yl)-3,4-dihydropyrazino[1,2-a]indol-2(1H)-yl)-5-methyl-1-((4-vinylpyridin-2-yl)methyl)-1H-indole-2-carboxylic acid] | < 200 | < 0.2 | –
CC(=O)N1CCN(c2cccc(Cn3c(C(=O)O)cc4cc(C)cc(N5C[C@@H](C)n6c(c(CCCOc7cc(C)c(Cl)c(C)c7)c7ccc(Cl)c(-c8c(C)nn(C)c8C)c76)C5=O)c43)n2)CC1 [Example 528, (R)-1-((6-(4-acetylpiperazin-1-yl)pyridin-2-yl)methyl)-7-(7-chloro-10-(3-(4-chloro-3,5-dimethylphenoxy)propyl)-4-methyl-1-oxo-6-(1,3,5-trimethyl-1H-pyrazol-4-yl)-3,4-dihydropyrazino[1,2-a]indol-2(1H)-yl)-5-methyl-1H-indole-2-carboxylic acid] | 870 | < 0.2 | –

— patent US11596639B2, “Substituted indole Mcl-1 inhibitors” (Vanderbilt University, priority 2016, dated 2023)
